Test results: patent US20210283097A1, “METHODS OF DIAGNOSING AND TREATING ALZHEIMER'S DISEASE WITH S-EQUOL” (Ausio Pharmaceuticals, LLC, priority 2016, published 2021)
Entries after “also recorded” stand apart in the source; their conditions may differ.

How the values were obtained:
[1] = Safety analysis of S-equol 10 mg twice per day in Alzheimer's disease subjects; assay type: in vivo, human; conditions: 10 mg twice per day for two weeks, Alzheimer's disease patients
Experimental: (§1) Subjects received a two week supply of medication, which uniformly consisted of placebo, and were instructed to take the study medication twice a day. At the end of this initial two-week period participants returned to the ADC clinical trials unit for their first study visit (visit 1; lead-in evaluation). Visit 1 procedures included an assessment of study medication compliance, vital signs, a query for perceived side effects, the Montreal Cognitive Assessment (MoCA), and a 40 ml phlebotomy; the blood was used to measure platelet mitochondria cytochrome oxidase (COX) and citrate synthase (CS) activities. At the completion of this visit the next two weeks of study medication was dispensed, which uniformly consisted of 10 mg S-equol capsule.
(§2) At the end of this second two-week period participants returned to the ADC clinical trials unit for their second study visit (visit 2; active treatment evaluation). The same procedures were performed during the lead-in evaluation and dispensed the next two weeks of study medication, which at this point uniformly consisted of placebo.
At the end of this final two-week period the participants returned to the ADC clinical trials unit for their third study visit (visit 3; wash-out evaluation). The lead-in and active treatment evaluation procedures were performed again, which completed participation in this single-blind study. […]

[2] = system: platelet mitochondria cytochrome oxidase (COX); test: Platelet mitochondria COX activity referenced to CS activity (COX/CS) in Alzheimer's disease subjects, single-blind pilot clinical study; assay type: in vivo, human; conditions: for COX/CS Visit 2 (Mean + SEM): after two weeks of S-equol 10 mg twice a day
Experimental: (§3) Alzheimer's disease subjects were recruited through the University of Kansas Alzheimer's Disease Center (ADC). The ADC maintains a clinical cohort whose routine characterizations include Clinical Dementia Rating (CDR) scale ratings, uniform data set (UDS) cognitive testing, and APOE genotyping. The diagnosis of clinic cohort participants is primarily based on CDR and UDS data, and is determined through a consensus conference that includes subspecialty-trained cognitive neurologists and an expert neuropsychologist. Subjects diagnosed with Alzheimer's disease further meet current criteria for that diagnosis in McKhann et al., Alzheimers Dement, 7 (2011) 263-269.
(§4) To qualify for the study, participants had to be female with very mild (CDR 0.5) or mild (CDR 1) Alzheimer's disease. Each participant was required to have a study partner. As part of the informed consent process, the subjects and study partners were told that during different parts of the study the participants would receive either an S-equol capsule or an inert placebo. The placebo could not be distinguished from the S-equol by sight, touch, or taste so although the investigators knew whether participants at any given point were receiving S-equol or placebo, the participants themselves were blind to the actual treatment. The S-equol and placebo capsule were provided by Ausio Pharmaceuticals, LLC (Cincinnati, Ohio).
as §1, §2
(§5) At the end of this final two-week period the participants returned to the ADC clinical trials unit for their third study visit (visit 3; wash-out evaluation). The lead-in and active treatment evaluation procedures were performed again, which completed participation in this single-blind study.
Forty milliliter blood samples were collected in tubes containing acid-citrate-dextrose (ACD) tubes as an anticoagulant, and maintained at room temperature. Within 24 hours of phlebotomy the blood was processed by the ADC Mitochondrial Genomics and Metabolism Core. To initiate the processing procedure, platelets were isolated by centrifugation and enriched mitochondrial fractions prepared using previously described methods. Such procedures involved nitrogen cavitation to rupture platelets followed by centrifugation to collect mitochondria.
The protein concentrations of the enriched mitochondrial fractions were measured using a BCA protein assay kit (BioRad, Hercules, Calif.). COX Vmax activity was determined as a pseudo first order-rate constant (sec−1/mg) by measuring the oxidation of reduced cytochrome c at 550 nm.
In addition to measuring COX activity, each sample's citrate synthase (CS) Vmax activity (nmol/min/mg) was measured. This assay was performed spectrophotometrically by following the formation of 5-thio-2-nitrobenzoate (412 nm) following the addition of 100 μM oxaloacetate at 30° C. […]

[3] = Montreal Cognitive Assessment (MoCA) in Alzheimer's disease subjects, single-blind pilot clinical study; assay type: in vivo, human; conditions: for MoCA Visit 2 (Mean + SEM): visit 2 = after two weeks of S-equol 10 mg twice a day; for percent MoCA score change between visit 1 and visit 2 (trend): FIG. 1
Experimental: as §3, §4, §1, §2, §5
Secondary outcomes included a safety analysis of the S-equol 10 mg twice per day dose and an analysis of MoCA scores.
In addition to summarizing MoCA scores by means and standard errors, the percent change between visit 1 and visit 2 scores, as well as the percent change between visit 1 and visit 3 scores, was calculated for each participant.

cytochrome oxidase (COX) = conditions: brains from ovariectomized mice; cited from earlier work
rat hippocampal neurons = conditions: cited from earlier work

## Oc1ccc([C@H]2COc3cc(O)ccc3C2)cc1 [S-equol]
[1]
  adverse events: No treatment-related adverse events; also recorded: No adverse events occurred
[2]; APOE4 Carriers, 8 participants
  COX/CS Visit 2 (Mean + SEM): 4.3E−05 ± 3.5E−06
[2]; APOE4 non-Carriers, Outlier Excluded, 6 participants
  COX/CS Visit 2 (Mean + SEM): 4.7E−05 ± 7.1E−06
[2]; APOE4 non-Carriers, Outlier Included, 7 participants
  COX/CS Visit 2 (Mean + SEM): 9.2E−05 ± 4.6E−05
[2]; FIGS. 3(A) and 3(B)
  percent COX/CS change between visit 1 and visit 2 (trend), non-APOE4 carriers versus APOE4 carriers: trended higher
[2]; Table 3
  difference in mean COX/CS values between visits, or between APOE4 carriers and non-carriers: No significant differences
[2]; Total, Outlier Excluded, 14 participants
  COX/CS Visit 2 (Mean + SEM): 4.5E−05 ± 3.5E−06
[2]; Total, Outlier Included, 15 participants
  COX/CS Visit 2 (Mean + SEM): 6.6E−05 ± 2.2E−05
[2]; slope visit 1 to 2 greater than slope visit 2 to 3, COX activity referenced to CS activity
  participants with a positive COX/CS response pattern (responders): 11 of the 15
[3]; APOE4 Carriers, 8 participants
  MoCA Visit 2 (Mean + SEM): 15.8 ± 2.5
[3]; APOE4 carriers
  percent MoCA score change between visit 1 and visit 2 (trend): trended in a downward direction
[3]; APOE4 non-Carriers, 7 participants
  MoCA Visit 2 (Mean + SEM): 13.3 ± 2.1
[3]; APOE4 non-carriers
  percent MoCA score change between visit 1 and visit 2 (trend): upward direction
[3]; Table 2
  difference in mean MoCA scores between visits, or between APOE4 carriers and non-carriers: No significant differences
[3]; Total, 15 participants
  MoCA Visit 2 (Mean + SEM): 14.6 ± 6.6
Cytochrome oxidase (COX)
  cytochrome oxidase (COX) activity and COX1 protein levels: increase
Rat hippocampal neurons
  respiratory and maximal glycolysis fluxes: increase
